Assay results published in PubChem BioAssay (NCI).
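Growth conditions: 96-well plates. Treatment: test compound, 48 hours, 5 concentrations. Analysis: linear interpolation between bracketing concentrations; unreached endpoints set to highest concentration. At the TGI there is no net growth.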

Key:
Experiment in all cases: NCI anticancer screen, dose series, 48 h
[1] = system: 786-0 renal
[2] = system: A498 renal
[3] = system: A549 NSCLC
[4] = system: ACHN renal
[5] = system: BT-549 breast
[6] = system: CAKI-1 renal
[7] = system: CCRF-CEM leukemia
[8] = system: COLO 205 colon
[9] = system: DU-145 prostate
[10] = system: EKVX NSCLC
[11] = system: HCC-2998 colon
[12] = system: HCT-116 colon
[13] = system: HCT-15 colon
[14] = system: HL-60(TB) leukemia
[15] = system: HOP-62 NSCLC
[16] = system: HOP-92 NSCLC
[17] = system: HS 578T breast
[18] = system: HT29 colon
[19] = system: IGROV1 ovarian
[20] = system: K-562 leukemia
[21] = system: KM12 colon
[22] = system: LOX IMVI melanoma
[23] = system: M14 melanoma
[24] = system: MALME-3M melanoma
[25] = system: MCF7 breast
[26] = system: MDA-MB-231 breast
[27] = system: MDA-MB-435
[28] = system: MDA-N
[29] = system: MOLT-4 leukemia
[30] = system: NCI-H226 lung
[31] = system: NCI-H23 lung
[32] = system: NCI-H460 lung
[33] = system: NCI-H522 lung
[34] = system: NCI/ADR-RES ovarian
[35] = system: OVCAR-3 ovarian
[36] = system: OVCAR-4 ovarian
[37] = system: OVCAR-5 ovarian
[38] = system: OVCAR-8 ovarian
[39] = system: PC-3 prostate
[40] = system: RPMI-8226 leukemia
[41] = system: RXF 393 renal
[42] = system: SF-268 CNS
[43] = system: SF-295 CNS
[44] = system: SF-539 CNS
[45] = system: SK-MEL-2 melanoma
[46] = system: SK-MEL-28 melanoma
[47] = system: SK-MEL-5 melanoma
[48] = system: SK-OV-3 ovarian
[49] = system: SN12C renal
[50] = system: SNB-19 CNS
[51] = system: SNB-75 CNS
[52] = system: SR leukemia
[53] = system: SW-620 colon
[54] = system: T-47D breast
[55] = system: TK-10 renal
[56] = system: U251 CNS
[57] = system: UACC-257 melanoma
[58] = system: UACC-62 melanoma
[59] = system: UO-31 renal

O=C1C2CC[C@@H]3C(=O)C(Cl)(Cl)[C@@H]3CCC2C1(Cl)Cl (stereo not given in full)
TGI [1]: > 100 µM
TGI [2]: > 100 µM
TGI [3]: > 100 µM
TGI [4]: > 100 µM
TGI [5]: > 100 µM
TGI [6]: > 100 µM
TGI [7]: 63.8 µM
TGI [8]: > 100 µM
TGI [9]: > 100 µM
TGI [10]: > 100 µM
TGI [11]: > 100 µM
TGI [12]: > 100 µM
TGI [13]: > 100 µM
TGI [14]: 16.7 µM
TGI [15]: > 29.7 µM
TGI [16]: > 100 µM
TGI [17]: > 100 µM
TGI [18]: > 100 µM
TGI [19]: > 100 µM
TGI [20]: > 100 µM
TGI [21]: > 100 µM
TGI [22]: > 100 µM
TGI [23]: > 100 µM
TGI [24]: > 100 µM
TGI [25]: > 91.1 µM
TGI [26]: > 100 µM
TGI [27]: > 100 µM
TGI [28]: > 100 µM
TGI [29]: 74.7 µM
TGI [30]: > 100 µM
TGI [31]: > 100 µM
TGI [32]: > 100 µM
TGI [33]: > 100 µM
TGI [34]: > 100 µM
TGI [35]: > 100 µM
TGI [36]: > 100 µM
TGI [37]: > 100 µM
TGI [38]: > 100 µM
TGI [39]: > 100 µM
TGI [40]: > 100 µM
TGI [41]: > 100 µM
TGI [42]: > 100 µM
TGI [43]: > 100 µM
TGI [44]: > 90.5 µM
TGI [45]: > 100 µM
TGI [46]: > 100 µM
TGI [47]: > 100 µM
TGI [48]: > 100 µM
TGI [49]: > 100 µM
TGI [50]: > 100 µM
TGI [51]: > 100 µM
TGI [52]: 70.3 µM
TGI [53]: > 100 µM
TGI [54]: > 100 µM
TGI [55]: > 100 µM
TGI [56]: > 100 µM
TGI [57]: > 100 µM
TGI [58]: > 100 µM
TGI [59]: > 100 µM

C#CCOC(=O)C(=[N+]=[N-])C(=O)CC(C)C
TGI [1]: > 10 µM
TGI [2]: > 10 µM
TGI [3]: > 10 µM
TGI [4]: > 10 µM
TGI [5]: > 10 µM
TGI [6]: > 10 µM
TGI [7]: > 10 µM
TGI [8]: > 10 µM
TGI [9]: > 10 µM
TGI [10]: > 10 µM
TGI [11]: > 10 µM
TGI [12]: > 10 µM
TGI [13]: > 10 µM
TGI [14]: > 10 µM
TGI [15]: > 10 µM
TGI [16]: > 10 µM
TGI [17]: > 10 µM
TGI [18]: > 10 µM
TGI [19]: > 10 µM
TGI [20]: > 10 µM
TGI [21]: > 10 µM
TGI [22]: > 10 µM
TGI [23]: > 10 µM
TGI [24]: > 10 µM
TGI [25]: > 10 µM
TGI [26]: > 10 µM
TGI [27]: > 10 µM
TGI [28]: > 10 µM
TGI [29]: > 10 µM
TGI [30]: > 10 µM
TGI [31]: > 10 µM
TGI [32]: > 10 µM
TGI [34]: > 10 µM
TGI [35]: > 10 µM
TGI [36]: > 10 µM
TGI [37]: > 10 µM
TGI [38]: > 10 µM
TGI [39]: > 10 µM
TGI [40]: > 10 µM
TGI [41]: > 10 µM
TGI [42]: > 10 µM
TGI [43]: > 10 µM
TGI [44]: > 10 µM
TGI [45]: > 10 µM
TGI [46]: > 10 µM
TGI [47]: > 10 µM
TGI [48]: > 10 µM
TGI [49]: > 10 µM
TGI [50]: > 10 µM
TGI [52]: > 10 µM
TGI [53]: > 10 µM
TGI [54]: > 10 µM
TGI [55]: > 10 µM
TGI [56]: > 10 µM
TGI [57]: > 10 µM
TGI [58]: > 10 µM
TGI [59]: > 10 µM

CC(C)=CCc1c2c(c(O)c3c(=O)c4c(oc13)-c1ccc(O)cc1OC4C=C(C)C)C=CC(C)(C)O2 (stereo not given)
TGI [1]: 23.9 µM
TGI [2]: 34.9 µM
TGI [3]: 24.6 µM
TGI [4]: 24.7 µM
TGI [5]: 28.1 µM
TGI [6]: 34.4 µM
TGI [7]: 15.5 µM
TGI [8]: 37.1 µM
TGI [9]: 27.5 µM
TGI [10]: 30.3 µM
TGI [11]: 11 µM
TGI [12]: 21 µM
TGI [13]: 24.8 µM
TGI [14]: 31.7 µM
TGI [15]: 28.4 µM
TGI [16]: 20.8 µM
TGI [17]: 17.2 µM
TGI [18]: 28.9 µM
TGI [19]: 27.8 µM
TGI [20]: 25.9 µM
TGI [21]: 21.7 µM
TGI [22]: 23.8 µM
TGI [23]: 35.4 µM
TGI [24]: 34.3 µM
TGI [25]: 28.9 µM
TGI [26]: 28 µM
TGI [27]: 23.3 µM
TGI [28]: 27.1 µM
TGI [29]: 22.7 µM
TGI [30]: 40.6 µM
TGI [31]: 20.3 µM
TGI [32]: 30.4 µM
TGI [33]: 26.9 µM
TGI [34]: 34.6 µM
TGI [35]: 25.2 µM
TGI [36]: 24.8 µM
TGI [37]: 35.9 µM
TGI [38]: 28.8 µM
TGI [39]: 24.7 µM
TGI [40]: 14.9 µM
TGI [41]: 20.1 µM
TGI [42]: 29.8 µM
TGI [43]: 28.6 µM
TGI [44]: 32.8 µM
TGI [45]: 26.1 µM
TGI [46]: 29.2 µM
TGI [47]: 28.2 µM
TGI [48]: 33.3 µM
TGI [49]: 17 µM
TGI [50]: 30.2 µM
TGI [51]: 25.3 µM
TGI [52]: 16 µM
TGI [53]: 23.5 µM
TGI [54]: 23 µM
TGI [55]: 28.5 µM
TGI [56]: 25.3 µM
TGI [57]: 29.4 µM
TGI [58]: 27.4 µM
TGI [59]: 33.7 µM
